Measurements from ChEMBL document CHEMBL6109039, “Designed and synthesized novel tripeptides targeting diabetes and its related pathologies” (Eur J Med Chem, 2025).
Residues, ends and D or L forms follow the SMILES beside them.

Tests used:
Alpha glucosidase = Alpha glucosidase (Homo sapiens, UniProt O43451+P10253+P14410+Q2M2H8); assay: Inhibition of Alpha-glucosidase (unknown origin) using p-nitrophenyl-alpha-D-glucopyranoside as substrate pre-incubated for 10 mins followed by substrate addition and measured after 5 mins by spectrophotometric analysis; type: protein assay
Albumin [1] = biological target: T1, Albumin (Homo sapiens, UniProt P02768); assay: Inhibition of D-fructose glycation in human serum albumin model by measuring ketoamine moieties incubated for 5 days by Nitroblue tetrazolium (NBT) reduction assay (reference value: 111.94 nmol/mL); conditions: 120 h, time 5 day
T1 sequence (P02768 whole entry): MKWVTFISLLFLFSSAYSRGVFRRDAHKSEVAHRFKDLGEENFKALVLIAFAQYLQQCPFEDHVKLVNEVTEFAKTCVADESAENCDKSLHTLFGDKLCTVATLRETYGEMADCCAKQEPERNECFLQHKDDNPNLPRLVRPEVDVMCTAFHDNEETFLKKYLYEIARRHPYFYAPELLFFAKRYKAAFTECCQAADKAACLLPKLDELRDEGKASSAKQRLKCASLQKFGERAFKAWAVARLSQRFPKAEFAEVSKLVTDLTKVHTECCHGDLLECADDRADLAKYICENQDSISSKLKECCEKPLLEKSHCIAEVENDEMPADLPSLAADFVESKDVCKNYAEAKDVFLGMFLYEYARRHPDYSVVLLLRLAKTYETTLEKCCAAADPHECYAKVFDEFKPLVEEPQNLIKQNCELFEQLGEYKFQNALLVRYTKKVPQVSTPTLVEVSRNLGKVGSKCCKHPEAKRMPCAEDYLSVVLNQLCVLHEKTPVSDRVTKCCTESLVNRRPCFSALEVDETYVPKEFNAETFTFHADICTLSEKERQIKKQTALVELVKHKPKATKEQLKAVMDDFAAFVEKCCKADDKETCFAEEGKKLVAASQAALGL

Albumin [2] = biological target: T1, Albumin; assay: Inhibition of D-glucose glycation in human serum albumin by measuring absorbance at 279 nm model incubated for 14 days by UV spectroscopic analysis (reference value: 2.302); conditions: 336 h, time 14 day
Mus musculus [3] = assay: Antidiabetic activity in Nicotinamide/Streptozotocin induced male Balb/c mouse model assessed as reduction in fasting blood glucose levels at 63.81 ug/kg, ip measured after 14 days by glucometer analysis (reference value: 168.5 +/- 8.42 mg/dl); type: functional; conditions: dose 63.81 µg/kg, time 14 day
Albumin [4] = biological target: T1, Albumin; assay: Inhibition of D-glucose glycation in human serum albumin model by measuring absorbance at 279 nm incubated for 5 days by UV spectroscopic analysis (reference value: 0.741); conditions: 120 h, time 5 day
Albumin [5] = biological target: T1, Albumin; assay: Inhibition of D-glucose glycation in human serum albumin model incubated for 14 days by UV spectroscopic analysis relative to control; conditions: 336 h, time 14 day
Albumin [6] = biological target: T1, Albumin; assay: Inhibition of D-fructose glycation in human serum albumin model by measuring ketoamine moieties incubated for 26 days by Nitroblue tetrazolium (NBT) reduction assay (reference value: 118.21 nmol/mL); conditions: 624 h, time 26 day
Albumin [7] = biological target: T1, Albumin; assay: Inhibition of D-glucose glycation in human serum albumin model by measuring ketoamine moieties incubated for 30 days by Nitroblue tetrazolium (NBT) reduction assay (reference value: 27.85 nmol/mL); conditions: 720 h, time 30 day
Albumin [8] = biological target: T1, Albumin; assay: Inhibition of D-fructose glycation in human serum albumin model by measuring ketoamine moieties incubated for 33 days by Nitroblue tetrazolium (NBT) reduction assay (reference value: 144.33 nmol/mL); conditions: 792 h, time 33 day
Mus musculus [9] = assay: Antidiabetic activity in Nicotinamide/Streptozotocin induced male Balb/c mouse model assessed as reduction in total cholesterol level in blood at 63.81 ug/kg, ip treated for 21 days (reference value: 121 +/- 6.05 mg/dL); type: functional; conditions: dose 63.81 µg/kg, time 21 day
Albumin [10] = biological target: T1, Albumin; assay: Inhibition of D-fructose glycation in human serum albumin model incubated for 14 days by UV spectroscopic analysis relative to control; conditions: 336 h, time 14 day
Albumin [11] = biological target: T1, Albumin; assay: Inhibition of D-glucose glycation in human serum albumin model by measuring ketoamine moieties incubated for 5 days by Nitroblue tetrazolium (NBT) reduction assay (reference value: 18.58 nmol/mL); conditions: 120 h, time 5 day
Mus musculus [12] = assay: Antidiabetic activity in Nicotinamide/Streptozotocin induced male Balb/c mouse model assessed as reduction in alanine aminotransferase level in blood at 63.81 ug/kg, ip treated for 21 days (reference value: 111 +/- 5.05 U/L); type: functional; conditions: dose 63.81 µg/kg, time 21 day
Mus musculus [13] = assay: Antidiabetic activity in Nicotinamide/Streptozotocin induced male Balb/c mouse model assessed as reduction in Triglycerides level in blood at 63.81 ug/kg, ip treated for 21 days (reference value: 61 +/- 3.05 mg/dL); type: functional; conditions: dose 63.81 µg/kg, time 21 day
Albumin [14] = biological target: T1, Albumin; assay: Inhibition of D-fructose glycation in human serum albumin model by measuring ketoamine moieties incubated for 14 days by Nitroblue tetrazolium (NBT) reduction assay (reference value: 129.58 nmol/mL); conditions: 336 h, time 14 day
Albumin [15] = biological target: T1, Albumin; assay: Inhibition of D-glucose glycation in human serum albumin model assessed as reduction in fluorescence intensity incubated for 3 days by UV spectroscopic analysis relative to control; conditions: 72 h, time 3 day
Albumin [16] = biological target: T1, Albumin; assay: Inhibition of D-glucose glycation in human serum albumin model by measuring absorbance at 279 nm incubated for 3 days by UV spectroscopic analysis (reference value: 0.562); conditions: 72 h, time 3 day
Albumin [17] = biological target: T1, Albumin; assay: Inhibition of D-fructose glycation in human serum albumin model by measuring absorbance at 279 nm incubated for 26 days by UV spectroscopic analysis (reference value: 2.267); conditions: 624 h, time 26 day
Albumin [18] = biological target: T1, Albumin; assay: Inhibition of D-glucose glycation in human serum albumin model by measuring ketoamine moieties incubated for 33 days by Nitroblue tetrazolium (NBT) reduction assay (reference value: 66.64 nmol/mL); conditions: 792 h, time 33 day
Albumin [19] = biological target: T1, Albumin; assay: Inhibition of D-fructose glycation in human serum albumin model assessed as reduction in fluorescence intensity incubated for 3 days by UV spectroscopic analysis relative to control; conditions: 72 h, time 3 day
Mus musculus [20] = assay: Antidiabetic activity in Nicotinamide/Streptozotocin induced male Balb/c mouse model assessed as relative liver weight at 63.81 ug/kg, ip treated for 21 days (reference value: 0.77 +/- 0.04 mg/g); type: functional; conditions: dose 63.81 µg/kg, time 21 day
Mus musculus [21] = assay: Antidiabetic activity in Nicotinamide/Streptozotocin induced male Balb/c mouse model assessed as reduction in fasting blood glucose levels at 63.81 ug/kg, ip measured after 7 days by glucometer analysis (reference value: 160.5 +/- 8.02 mg/dl); type: functional; conditions: dose 63.81 µg/kg, time 7 day
Mus musculus [22] = assay: Antidiabetic activity in Nicotinamide/Streptozotocin induced male Balb/c mouse model assessed as LDL-Cholesterol/HDL-Cholesterol ratio in blood at 63.81 ug/kg, ip treated for 21 days (reference value: 1.53); type: functional; conditions: dose 63.81 µg/kg, time 21 day
Albumin [23] = biological target: T1, Albumin; assay: Inhibition of D-fructose glycation in human serum albumin model by measuring absorbance at 279 nm incubated for 5 days by UV spectroscopic analysis (reference value: 1.056); conditions: 120 h, time 5 day
Albumin [24] = biological target: T1, Albumin; assay: Inhibition of D-glucose glycation in human serum albumin model by measuring absorbance at 279 nm incubated for 7 days by UV spectroscopic analysis (reference value: […]); conditions: 168 h, time 7 day
Albumin [25] = biological target: T1, Albumin; assay: Inhibition of D-glucose glycation in human serum albumin model by measuring absorbance at 279 nm incubated for 26 days by UV spectroscopic analysis (reference value: 2.301); conditions: 624 h, time 26 day
Mus musculus [26] = assay: Antidiabetic activity in Nicotinamide/Streptozotocin induced male Balb/c mouse model assessed as reduction in HDL-cholesterol level in blood at 63.81 ug/kg, ip treated for 21 days (reference value: 30 +/- 1.80 mg/dL); type: functional; conditions: dose 63.81 µg/kg, time 21 day
Mus musculus [27] = assay: Antidiabetic activity in Nicotinamide/Streptozotocin induced male Balb/c mouse model assessed as reduction in fasting blood glucose levels at 63.81 ug/kg, ip measured immediately by glucometer analysis (reference value: 127.50 +/- 6.87 mg/dl); type: functional; conditions: dose 63.81 µg/kg
Albumin [28] = biological target: T1, Albumin; assay: Inhibition of D-fructose glycation in human serum albumin model by measuring ketoamine moieties incubated for 3 days by Nitroblue tetrazolium (NBT) reduction assay (reference value: 152.64 nmol/mL); conditions: 72 h, time 3 day
Albumin [29] = biological target: T1, Albumin; assay: Inhibition of D-glucose glycation in human serum albumin model by measuring ketoamine moieties incubated for 14 days by Nitroblue tetrazolium (NBT) reduction assay (reference value: 28.69 nmol/mL); conditions: 336 h, time 14 day

SMILES: N=C(N)NCCC[C@H](N)C(=O)N[C@@H](Cc1c[nH]c2ccccc12)C(=O)N[C@@H](Cc1c[nH]c2ccccc12)C(=O)O (H-Arg-Trp-Trp-OH)
- IC50 (Alpha glucosidase): 98 µM
- Activity (Albumin [1]): 90.74 nmol/mL
- OD (Albumin [2]): 0.443
- Activity (Mus musculus [3]): 134 mg/dL
- OD (Albumin [4]): 0.335
- inhibition (INH) (Albumin [5]): 74.68%
- Activity (Albumin [6]): 142.17 nmol/mL
- Activity (Albumin [7]): 18.908 nmol/mL
- Activity (Albumin [8]): 109.89 nmol/mL
- Activity (Mus musculus [9]): 108 mg/dL
- inhibition (INH) (Albumin [10]): 16.45%
- Activity (Albumin [11]): 12.342 nmol/mL
- Activity (Mus musculus [12]): 97 U/L
- Activity (Mus musculus [13]): 53 mg/dL
- Activity (Albumin [14]): 91.22 nmol/mL
- inhibition (INH) (Albumin [15]): 78%
- OD (Albumin [16]): 0.287
- OD (Albumin [17]): 1.502
- Activity (Albumin [18]): 18.433 nmol/mL
- inhibition (INH) (Albumin [19]): 52.78%
- Activity (Mus musculus [20]): 1.22 mg/g
- Activity (Mus musculus [21]): 150 mg/dL
- Ratio (Mus musculus [22]): 0.75
- OD (Albumin [23]): 0.482
- OD (Albumin [24]): 0.434
- OD (Albumin [25]): 2.301
- Activity (Mus musculus [26]): 41 mg/dL
- Activity (Mus musculus [27]): 111.5 mg/dL
- Activity (Albumin [28]): 135.37 nmol/mL
- Activity (Albumin [29]): 9.573 nmol/mL
